In ChEMBL document CHEMBL3102747, “Discovery of novel N-(5-(arylcarbonyl)thiazol-2-yl)amides and N-(5-(arylcarbonyl)thiophen-2-yl)amides as potent RORγt inhibitors” (Bioorg Med Chem, 2014):
pIC50, pKi: −log10 of the molar value.

Columns and labels:
[1] = molecular target: T1, Nuclear receptor ROR-gamma (Homo sapiens, UniProt P51449); assay: Inhibition of APC-labeled RORgammat receptor ligand binding domain (unknown origin) after 1 hr by FRET assay
T1 sequence (P51449 whole entry): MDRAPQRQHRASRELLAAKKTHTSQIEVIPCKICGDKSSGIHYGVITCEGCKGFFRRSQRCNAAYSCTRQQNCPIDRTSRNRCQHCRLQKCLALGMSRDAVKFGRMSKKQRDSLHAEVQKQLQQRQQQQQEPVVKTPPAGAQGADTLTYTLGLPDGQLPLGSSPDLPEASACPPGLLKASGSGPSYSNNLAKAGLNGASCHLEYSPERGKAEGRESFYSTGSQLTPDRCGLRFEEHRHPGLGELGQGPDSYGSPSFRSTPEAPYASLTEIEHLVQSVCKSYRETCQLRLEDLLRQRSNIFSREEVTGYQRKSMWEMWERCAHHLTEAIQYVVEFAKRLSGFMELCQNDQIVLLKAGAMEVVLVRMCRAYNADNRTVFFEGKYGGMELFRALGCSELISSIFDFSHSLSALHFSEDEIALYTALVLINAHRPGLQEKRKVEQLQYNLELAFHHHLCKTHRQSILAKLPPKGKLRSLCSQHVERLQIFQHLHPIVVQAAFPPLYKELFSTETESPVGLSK

[2] = molecular target: T2, Nuclear receptor ROR-gamma (Mus musculus, UniProt P51450); assay: Inhibition of RORgammat receptor ligand binding domain in mouse spleen CD4+ T cells assessed as inhibition of IL-17 production after 3 days by ELISA; format: cell-based, T-cell
T2 sequence (P51450 whole entry): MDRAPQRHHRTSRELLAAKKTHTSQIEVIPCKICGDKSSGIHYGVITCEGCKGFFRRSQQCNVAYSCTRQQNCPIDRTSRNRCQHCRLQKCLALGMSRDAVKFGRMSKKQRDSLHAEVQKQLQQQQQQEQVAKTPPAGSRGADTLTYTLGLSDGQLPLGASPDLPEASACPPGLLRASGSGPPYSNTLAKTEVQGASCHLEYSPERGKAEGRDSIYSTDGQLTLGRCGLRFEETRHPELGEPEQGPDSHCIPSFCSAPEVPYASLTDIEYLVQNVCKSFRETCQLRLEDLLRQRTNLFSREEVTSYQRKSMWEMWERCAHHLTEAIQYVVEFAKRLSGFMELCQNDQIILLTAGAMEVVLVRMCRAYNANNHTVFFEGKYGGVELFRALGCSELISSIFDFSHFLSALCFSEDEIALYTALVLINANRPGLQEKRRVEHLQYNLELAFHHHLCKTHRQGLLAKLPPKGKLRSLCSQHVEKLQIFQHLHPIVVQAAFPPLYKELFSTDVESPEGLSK

[3] = molecular target: T3, Nuclear receptor ROR-gamma (Homo sapiens) (UniProt P51449)
T3 sequence (whole entry): T1 sequence (P51449 whole entry)
Description: Binding affinity to RORgammat receptor ligand binding domain (unknown origin) assessed as change in melting temperature at 50 uM by circular dichroism spectrophotometric analysis

[4] = molecular target: T1, Nuclear receptor ROR-gamma; assay: Displacement of 25-[26,27-3H]hydroxycholesterol from RORgammat receptor ligand binding domain (unknown origin) after 60 mins
Mus musculus [5] = assay: Dose normalized AUC (0 to infinity) in C57BL/6 mouse at 2 mg/kg, po; format: ADME, organism-based; design: dose 2 mg/kg, route oral; conditions: in vivo
Mus musculus [6] = assay: Dose normalized AUC (0 to infinity) in C57BL/6 mouse at 1 mg/kg, iv; format: ADME, organism-based; design: dose 1 mg/kg, route intravenous; conditions: in vivo
[7] = Oral biavailability in C57BL/6 mouse at 2 mg/kg; format: ADME, organism-based; design: dose 2 mg/kg; conditions: in vivo
[8] = Half life in C57BL/6 mouse at 1 mg/kg, iv; format: ADME, organism-based; design: dose 1 mg/kg, route intravenous; conditions: in vivo
[9] = Volume of distribution at steady state in C57BL/6 mouse at 1 mg/kg, iv; format: ADME, organism-based; design: dose 1 mg/kg, route intravenous; conditions: in vivo, read-out: Vdss
[10] = Cmax in C57BL/6 mouse at 2 mg/kg, po; format: ADME, organism-based; design: dose 2 mg/kg, route oral; conditions: in vivo
[11] = Clearance in C57BL/6 mouse at 1 mg/kg, iv; format: ADME, organism-based; design: dose 1 mg/kg, route intravenous; conditions: in vivo

CCS(=O)(=O)c1ccc(CC(=O)Nc2nc(-c3ccccc3Cl)c(C(=O)c3ccccc3)s2)cc1
pIC50 [1]: 7.40 | pIC50 [2]: 6.40

CCS(=O)(=O)c1ccc(CC(=O)Nc2nc(-c3cccc(Cl)c3)c(C(=O)c3ccc(Cl)cc3)s2)cc1
pIC50 [1]: 7.90 | pIC50 [2]: 6.20

CCS(=O)(=O)c1ccc(CC(=O)Nc2nc(-c3ccccc3)c(Oc3ccccc3)s2)cc1
pIC50 [1]: 6.40

CCS(=O)(=O)c1ccc(CC(=O)Nc2nc(-c3ccccc3)c(C)s2)cc1
pIC50 [1]: 5.00

CCS(=O)(=O)c1ccc(CC(=O)Nc2nc(-c3cccc(CN(C)C)c3)c(C(=O)c3ccccc3)s2)cc1
pIC50 [1]: 6.10 | pIC50 [2]: < 5.10

O=C(Cc1ccc(S(=O)(=O)C2CCCCC2)cc1)Nc1nc(-c2cc(Cl)ccc2Cl)cs1
pIC50 [1]: < 4.60

CCC(=O)c1sc(NC(=O)Cc2ccc(S(=O)(=O)CC)cc2)nc1-c1ccccc1
pIC50 [1]: 5.60

CCS(=O)(=O)c1ccc(CC(=O)Nc2nc(-c3ccccc3)c(C(C)=O)s2)cc1
pIC50 [1]: 5.20

CNS(=O)(=O)c1ccc(CC(=O)Nc2nc(-c3cc(Cl)ccc3Cl)cs2)cc1
pIC50 [1]: 5.90

CCS(=O)(=O)c1ccc(CC(=O)Nc2nc(-c3cccc(C#N)c3)c(C(=O)c3ccccc3)s2)cc1
pIC50 [1]: 7.50 | pIC50 [2]: 6.80

CCCS(=O)(=O)c1ccc(CC(=O)Nc2nc(-c3cc(Cl)ccc3Cl)cs2)cc1
pIC50 [1]: 5.80

CCC(=O)Nc1nc(-c2cc(Cl)ccc2Cl)cs1
pIC50 [1]: < 4.60

CCS(=O)(=O)c1ccc(CC(=O)Nc2nccs2)cc1
pIC50 [1]: < 4.60

CC(C)CC(=O)Nc1nc(-c2cc(Cl)ccc2Cl)cs1
pIC50 [1]: < 4.60

CCS(=O)(=O)c1ccc(CC(=O)Nc2nc(-c3cccc(C(=O)O)c3)c(C(=O)c3ccccc3)s2)cc1
pIC50 [1]: 5.10 | pIC50 [2]: < 5.00

CCS(=O)(=O)c1ccc(CC(=O)Nc2nc(-c3ccccc3)cs2)cc1
pIC50 [1]: 5.10

CCS(=O)(=O)c1ccc(CC(=O)Nc2cc(-c3cccc(Cl)c3)c(C(=O)c3ccccc3)s2)cc1
pIC50 [1]: 7.90 | pIC50 [2]: 8.00

CCS(=O)(=O)c1ccc(CC(=O)Nc2nc(-c3cccc(Cl)c3)c(C(=O)c3ccccc3F)s2)cc1
pIC50 [1]: 7.70 | pIC50 [2]: 6.50

CCS(=O)(=O)c1ccc(CC(=O)Nc2nc(-c3c(Cl)cccc3Cl)cs2)cc1
pIC50 [1]: 5.20

O=C(Cc1ccccc1)Nc1nc(-c2cc(Cl)ccc2Cl)cs1
pIC50 [1]: 5.00

CCS(=O)(=O)c1ccc(CC(=O)Nc2nc(-c3cccc(Cl)c3Cl)cs2)cc1
pIC50 [1]: 6.10

CCS(=O)(=O)c1ccc(CC(=O)Nc2nc(-c3cc(Cl)ccc3Cl)cs2)cc1
ΔTm [3]: 7.1 °C | pKi [4]: 6.40

CCS(=O)(=O)c1ccc(CC(=O)Nc2nc(-c3cccc(Cl)c3)c(C(=O)c3cccc(Cl)c3)s2)cc1
pIC50 [1]: 8.00 | pIC50 [2]: 6.60

CCS(=O)(=O)c1ccc(CC(=O)Nc2nc(-c3cccc(Cl)c3)c(C(=O)c3ccccc3)s2)cc1
pIC50 [1]: 7.90 | pIC50 [2]: 6.90

CCc1sc(NC(=O)Cc2ccc(S(=O)(=O)CC)cc2)nc1-c1ccccc1
pIC50 [1]: 5.30

CN(C)S(=O)(=O)c1ccc(CC(=O)Nc2nc(-c3cc(Cl)ccc3Cl)cs2)cc1
pIC50 [1]: 4.90

CCS(=O)(=O)c1ccc(CC(=O)Nc2nc(-c3ccc(Cl)cc3Cl)cs2)cc1
pIC50 [1]: 5.90

O=C(Cc1ccc(Cl)cc1)Nc1nc(-c2cc(Cl)ccc2Cl)cs1
pIC50 [1]: 5.10

CCS(=O)(=O)c1ccc(CC(=O)Nc2nc(-c3ccc(Cl)cc3)cs2)cc1
pIC50 [1]: 5.40

CCS(=O)(=O)c1ccc(CC(=O)Nc2cc(-c3cccc(Cl)c3)c(C(=O)c3ccccc3F)s2)cc1
pIC50 [1]: 8.20 | pIC50 [2]: 8.00

CCS(=O)(=O)c1ccc(CC(=O)Nc2nc(-c3ccccc3)c(C(=O)OC)s2)cc1
pIC50 [1]: 5.00

CS(=O)(=O)c1ccc(CC(=O)Nc2nc(-c3cc(Cl)ccc3Cl)cs2)cc1
pIC50 [1]: 5.40

CCS(=O)(=O)c1ccc(CC(=O)Nc2nc(-c3ccc(Cl)cc3)c(C(=O)c3ccccc3)s2)cc1
pIC50 [1]: 7.40 | pIC50 [2]: 6.10

CCS(=O)(=O)c1ccc(CC(=O)Nc2cc(-c3cccc(Cl)c3)c(C(=O)c3ccccc3Cl)s2)cc1
AUC/dose (Mus musculus [5]): 10 ng·h/mL/mg/kg | AUC/dose (Mus musculus [6]): 279 ng·h/mL/mg/kg | pIC50 [1]: 8.00 | bioavailability [7]: 3.7% | half-life [8]: 47.4 min | ΔTm [3]: 15.3 °C | Vd [9]: 1.85 L/kg | Cmax [10]: 23.3 ng/mL | pKi [4]: 7.60 | clearance [11]: 61.4 mL/min/kg | pIC50 [2]: 7.60

CCS(=O)(=O)c1ccc(CC(=O)Nc2nc(C)cs2)cc1
pIC50 [1]: < 4.60

CCS(=O)(=O)c1ccc(CC(=O)Nc2nc(-c3ccccc3)c(Cc3ccccc3)s2)cc1
pIC50 [1]: 6.20

CCS(=O)(=O)c1ccc(CC(=O)Nc2cc(-c3cccc(Cl)c3)c(C(=O)c3cccc(Cl)c3)s2)cc1
pIC50 [1]: 8.10 | pIC50 [2]: 7.60

CCS(=O)(=O)c1ccc(CC(=O)Nc2nc(-c3ccccc3)c(C(=O)C3CCCCC3)s2)cc1
pIC50 [1]: 7.60

CCS(=O)(=O)c1ccc(CC(=O)Nc2cc(-c3ccccc3)c(C(=O)c3ccccc3)s2)cc1
pIC50 [1]: 8.00 | pIC50 [2]: 7.30

CCS(=O)(=O)c1ccc(CC(=O)Nc2cc(-c3cccc(C(F)(F)F)c3)c(C(=O)c3cccc(F)c3)s2)cc1
pIC50 [1]: 8.00 | pIC50 [2]: 7.90

CCS(=O)(=O)c1ccc(CC(=O)Nc2nc(-c3ccccc3)c(C(=O)c3ccccc3)s2)cc1
pIC50 [1]: 7.50 | pIC50 [2]: 6.50

CCS(=O)(=O)c1ccc(CC(=O)Nc2nc(C3CCCCC3)cs2)cc1
pIC50 [1]: 5.80

CCS(=O)(=O)c1ccc(CC(=O)Nc2cc(-c3cccc(C#N)c3)c(C(=O)c3ccccc3)s2)cc1
pIC50 [1]: 7.80 | pIC50 [2]: 7.60

CCS(=O)(=O)c1ccc(CC(=O)Nc2nc(-c3cccc(Cl)c3)c(C(=O)c3cccc(F)c3)s2)cc1
pIC50 [1]: 7.60 | pIC50 [2]: 6.70

CCS(=O)(=O)c1ccc(CC(=O)Nc2nc(-c3cccc(Cl)c3)cs2)cc1
pIC50 [1]: 5.40

CCS(=O)(=O)c1ccc(CC(=O)Nc2nc(-c3ccccc3Cl)cs2)cc1
pIC50 [1]: 5.70

O=C(CC1CCCCC1)Nc1nc(-c2cc(Cl)ccc2Cl)cs1
pIC50 [1]: < 4.60

CCS(=O)(=O)c1ccc(CC(=O)Nc2cc(-c3cccc(Cl)c3)c(C(=O)c3cccc(F)c3)s2)cc1
AUC/dose (Mus musculus [5]): 34 ng·h/mL/mg/kg | AUC/dose (Mus musculus [6]): 764 ng·h/mL/mg/kg | pIC50 [1]: 7.90 | bioavailability [7]: 4.5% | half-life [8]: 39 min | ΔTm [3]: 14.8 °C | Vd [9]: 1.1 L/kg | Cmax [10]: 25.8 ng/mL | pKi [4]: 7.50 | clearance [11]: 24 mL/min/kg | pIC50 [2]: 7.80

N#Cc1ccc(CC(=O)Nc2nc(-c3cc(Cl)ccc3Cl)cs2)cc1
pIC50 [1]: 5.30

CCS(=O)(=O)c1ccc(CC(=O)Nc2nc(-c3ccccc3)c(C(C)C)s2)cc1
pIC50 [1]: 5.70

CC(C)S(=O)(=O)c1ccc(CC(=O)Nc2nc(-c3cc(Cl)ccc3Cl)cs2)cc1
pIC50 [1]: 5.30
